Assay results: US11166942B2 (PRAXIS BIOTECH LLC, priority 2018, dated 2021)

How the values were obtained:
Type in all cases: cell-based, human
[1] = test system: ATF4; assay: ATF4 expression inhibition assay (immunoblot, Tg-stressed HEK293T cells); settings: 100 nM Tg, 3 hours, 0.1 nM to 10 μM compound (FIG. 6)
Description: HEK293T cells were maintained at 37° C. and 5% CO2 in Dulbecco's Modified Eagle's Media (DMEM) supplemented with 10% fetal bovine serum (FBS), 2 mM L-glutamine, 100 U/ml penicillin, and 100 μg/ml streptomycin. After reaching 80% of confluence, cells were detached and seeded on 6 well plates in complete media, allowed to recover overnight and treated for 3 hours with 100 nM thapsigargin (Tg) in the presence of various concentrations ranging from 0.1 nM to 10 μM. Cells without treatment (Veh) or cells treated with Tg alone were used as controls.
After 3 hours of treatment with Tg and the test compound, cells were lysed with SDS-PAGE lysis buffer. Lysates were transferred to 1.5 ml tubes and sonicated for 3 min, and total protein amounts were quantified using BCA Protein Assay Kit (Pierce). Equal amount of proteins was loaded on SDS-PAGE gels. Proteins were transferred onto […] PVDF membranes (BioRad) and probed with primary antibodies diluted in Tris-buffered saline supplemented with 0.1% Tween 20 and 3% bovine serum albumin.
ATF4 (11815) antibody (Cell Signaling Technologies) and β-actin (Sigma-Aldrich) antibodies were used as primary antibodies. […]

[2] = test system: ATF4; assay: ATF4 inhibition assay under Aβ stimulation (SH-SY5Y cells with 7PA2 CHO conditioned media); settings: 16 hours, 1 nM to 10 μM compound (FIG. 7)
Description: Chinese hamster ovary (CHO) cells that stably express human APP751 incorporating the familial Alzheimer's disease mutation V717F were used as a source of […] monomer and low-n oligomers. These cells, referred to as 7PA2 CHO cells, were cultured in 100 mm dishes with Dulbecco's modified Eagle's medium (DMEM) containing 10% fetal bovine serum, 2 mM L-glutamine, 100 U/ml penicillin, and 100 μg/ml […], streptomycin and […] G418. Upon reaching 90-100% confluency, cells were washed with 5 mL of glutamine- and serum-free DMEM and incubated for approximately 16 h in 5 mL of the same DMEM. Conditioned media (CM) was collected.
SH-SY5Y cells were maintained at 37° C. and 5% CO2 in RPMI 1640 media supplemented with 10% fetal bovine serum (FBS), penicillin and streptomycin. After reaching 80% of confluence, cells were detached and seeded on 6 well plates in complete media, allowed to recover 48 h and treated for 16 hours with CM from WT CHO cells (wtCM) or 7PA2 CHO cells (7PA2CM) in the presences of various concentrations ranging from 1 nM to 10 μM of compound 58.
After 16 hours treatment, culture media were removed and cells were lysed with SDS-PAGE lysis buffer. Lysates were transferred to 1.5 ml tubes and sonicated for 3 min. Total protein amount was quantified using BCA Protein Assay Kit (Pierce). Equal amount of proteins (30 μg) were loaded on SDS-PAGE gels. […]

[3] = test system: ATF4; assay: ATF4 expression inhibition assay (ATF4 5'UTR luciferase reporter, Tg-stressed HEK293T cells); settings: Homo sapiens, HEK-293T, 3 h, 100 nM thapsigargin, 3 hours, HEK293T ATF4 luciferase reporter
Outline: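 HEK293T stably expressing luciferase fused downstream of human full-length ATF4 5′UTR, stressed with 100 nM thapsigargin plus compound (100 nM or 1 μM; IC50 series 0.1 nM to 1 μM) for 3 h at 37° C. Luminescence normalized to Tg alone (0%) and untreated cells (100% inhibition).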

In the case of O=C(NN1CCN(C[C@@H](O)COc2ccc(Cl)c(F)c2)CC1)c1ccc2cc(Cl)ccc2n1 [Compound 58, (R)-6-chloro-N-(4-(3-(4-chloro-3-fluorophenoxy)-2-hydroxypropyl)piperazin-1-yl)quinoline-2-carboxamide], the “ATF4 expression under Tg stress (immunoblot)” value [1] is reported as “inhibits the expression of ATF4 under Tg treatment in a dose dependent manner”, the “ATF4 expression in the presence of Aβ oligomers (immunoblot)” value [2] is reported as “inhibits the expression of ATF4 in the presence of Aβ oligomers treatment in a dose dependent manner” and the inhibition at 0.1 µM ([3]; 100 nM test compound, read-out: % ATF4 inhibition at 100 nM) is reported as 86.5%. It also gave an IC50 ([3]; read-out: ATF4 inhbition IC50) of 5.7 nM and an inhibition at 1 µM ([3]; 1 μM test compound, read-out: % ATF4 inhibition at 1 μM) of 97.6%.
